Read-outs that look alike come from different tables or passages of the source.
How the values were obtained:
macrophages = test: Tubastatin A treatment of macrophages (APCs) in vitro; assay type: cell-based
B16 melanoma = test: In vivo B16 melanoma tumor growth in C57BL/6 mice; conditions: for Tumor growth: 25 mg/kg, intraperitoneal, three times weekly
antigen-specific T-cells = test: In vivo antigen-specific T-cell response to vaccination; parameters: species or system mice; conditions: in vivo treatment
[1] = system: JAK2/STAT3 phosphorylation in B16 murine melanoma cells; test: JAK2/STAT3 phosphorylation in B16 melanoma in vivo
MCL = test: In vivo treatment of MCL-bearing mice
[2] = system: MHC expression on melanoma cells; test: Surface marker analysis of melanoma cells by flow cytometry; assay type: cell-based, human and murine; conditions: 3 μM, 48 hours, B16 and WM793
Protocol: For surface marker analysis melanoma cells were treated with TubastatinA or DMSO for 48 hrs, and/or using Non target and HDAC6KD cell lines, Cells were singly stained with phycoerythryn (PE) conjugated antibodies against MHC I, MHC II, CD40, CD80, CD86. Conjugated antibodies were purchases from eBioscience (San Diego, Calif., USA). After staining for 30 minutes at 4° C., cells were washed three times and then resuspended in buffer containing DAPI (50 ng/mL) for viability. At least 10,000 events were collected using an LSR II (BD) and subsequently analyzed using FlowJo software.2.2.7.

[3] = system: NRAS and BRAF mutant human melanoma cell lines; test: Cell proliferation of human melanoma cell lines (MTS, 24 h); assay type: cell-based
Protocol: Cell proliferation was evaluated using various pan- and isotype selective HDACi in a broad panel of human melanoma cell lines. Briefly, cells were plated at 10×10^3/well in a 96 well flat bottom plate. The following day, media was changed to that containing different concentrations of HDACi or matched DMSO vehicle concentrations diluted in complete medium done in triplicate, all with a final concentration of less than 0.1% DMSO. Cells were incubated for 24 hours at 37° C. and 5% CO2. […] All values were then normalized and expressed as a percentage of medium control growth.

[4] = system: melanoma antigens gp100, MART1, TYRP1 and TYRP2; test: Expression of tumor antigens in human melanoma cells (qRT-PCR); assay type: cell-based; conditions: 48 hours
Protocol: (D) Expression of tumor antigens was measured in human WM164 non-target and HDAC6KD cells. (E) Expression of tumor antigens mart-1 and gp-100 was measured by western blot.

[5] = system: STAT3 phosphorylation in APCs; test: STAT3 phosphorylation and recruitment to the IL-10 gene promotor in APCs; assay type: cell-based
[6] = system: acetyl-tubulin and acetyl-histone3 in human melanoma cell lines; test: Western blot of HDAC substrate acetylation in human melanoma cell lines; assay type: cell-based; conditions: for acetyl-tubulin and acetylation status of Histone 3: WM795 cells, 24 hrs, FIG. 47
Protocol: To confirm the selectivity of isotype specific HDACi, Western blot analysis was performed on the acetylation status of known HDAC substrates including histone H3 and H4, which are known Class I HDAC targets, and α-tubulin, a target for HDAC6. The doses required to impart the anti-proliferative effect coincided with that needed to increase acetylation of the respective HDAC substrates (FIG. 41F-41H). […] Conversely, HDAC6 selective inhibitors (HDAC6i) increase α-tubulin acetylation but not histone acetylation (FIG. 41F).

[7] = system: B16 murine melanoma cells; test: B16 melanoma cell growth inhibition assay (MTS); assay type: cell-based; conditions: 48 h
Protocol: B16 murine melanoma cells were plated at 5×10^3/well in 96 well flat bottom plates. The following day, media was changed to that containing various concentrations of HDACi or matched DMSO vehicle concentrations diluted in complete medium done in triplicate. […] Briefly, 20 μL of reagent were added per well and incubated at 37° C. for 3 hours.

HDAC6 = HDAC6 (Homo sapiens (Human), UniProt Q9UBN7); test: HDAC inhibition assay, HDAC6; assay type: biochemical
[8] = system: IL-10 production in PEM and RAW264.7 cells; test: IL-10 production in antigen presenting cells (ELISA); assay type: cell-based, murine; conditions: 24 hrs
Protocol: Murine peritoneal elicited primary macrophages (PEM)(A) and murine RAW264.7 (B) cells were incubated with JB7-19, JB7-22, JB720 at the concentration indicated on each chart. After 24 hrs, the production of IL-10 was measured by ELISA.

HDAC1 = HDAC1 (Homo sapiens (Human), UniProt Q13547); test: HDAC inhibition assay, HDAC1; assay type: biochemical
[9] = system: HuT-78, murine MCL, B16 and SM1 cells; test: Cell viability of cancer cells (CellTiter 96 Aqueous ONE); assay type: cell-based, human and murine; conditions: 24 hrs, compared to DMSO
Protocol: Human cutaneous T-cell lymphoma (CTCL) HuT-78 (A), murine mantle cell lymphoma (MCL) (B), and murine melanoma B16 (C) and SM1 (D) cells were incubated with JB7-19, JB7-22, JB720 at different concentrations for 24 hrs. Cell viability was measured using CellTiter 96 Aqueous ONE solution (Promega, Madison, Wis.) and compared to DMSO treated control samples. Error bars represent standard deviation from triplicates.

[10] = system: acetyl-α-tubulin and acetyl-H3 in B16 melanoma cells; test: Tubulin and histone acetylation Western blot assay; assay type: cell-based, murine
Protocol: […]. B16 melanoma cells were plated at 10^5 cells/well in 12 well plates and allowed to adhere overnight. A 50 mM stock of compound was then added by serial dilutions in complete medium to the indicated concentrations. Cells were incubated for 24 h under humidified conditions (37° C., 5% CO2). Wells were then washed with cold PBS, and cells were lysed in a buffer containing 10 mM Tris-HCl pH 8.0, 10% SDS, […], 100 mM DTT, and 1× protease inhibitor (Roche). Cells were lysed for 30 min on ice and then sonicated for 8 min (8 cycles of 30 s on/30 s rest). Cells were then boiled for 10 min with 6× gel loading buffer and resolved on 4-15% gradient gels and subsequently transferred onto nitrocellulose membranes. Membranes were blocked with 5% milk in PBS-T and detection of specific antigens using antibodies against acetyl-H3 and H3 (Cell Signaling), and acetyl-α-tubulin and α-tubulin (Sigma). Bands were detected by scanning blots with LI-COR Odyssey imaging system using both 700 and 800 channels.

B16 WT melanoma = test: In vivo B16 melanoma tumor growth in SCID mice
Excerpt: To further characterize the relative contribution of anti-tumor immunity, specific subsets of cells were depleted via antibody depletion, which was confirmed by staining leukocytes from spleen. […] Taken together, these observations support the anti-melanoma activity of a functional immune system after HDAC6 inhibition.

[11] = system: human melanoma cell lines; test: Cell cycle analysis by propidium iodide staining; assay type: cell-based; conditions: FACS
Protocol: Cells were treated with indicated doses of HDAC inhibitors or DMSO control and then trypsinized, washed, and rendered into a single cell suspension in 1 mL of DPBS. 4 mL ice cold 200 proof ethyl alcohol was added dropwise while vortexing to fix cells. Samples were washed and resuspended in 75% ethanol solution overnight. Then, cells were washed in PBS+0.1% Triton X-100 and counted. Equal numbers of cells were then stained in a solution containing 10 μg/mL RNAseA+1 μg/mL propidium iodide for 2 hours at room temperature. Data was then acquired using a FACSCaliber with at least 10,000 events collected. Cell cycle analysis was completed using ModFit LT (Verity Software House, Topsham, Me.).

[12] = Table 1B, read-out: IC50 (μM) HDAC6
[13] = Table 1B, read-out: IC50 (μM) HDAC1
[14] = Table 2, cyclic urea compounds, read-out: HDAC6 IC50
[15] = Table 2, cyclic urea compounds, read-out: HDAC1 IC50

HDAC6, sequence (Q9UBN7 whole entry): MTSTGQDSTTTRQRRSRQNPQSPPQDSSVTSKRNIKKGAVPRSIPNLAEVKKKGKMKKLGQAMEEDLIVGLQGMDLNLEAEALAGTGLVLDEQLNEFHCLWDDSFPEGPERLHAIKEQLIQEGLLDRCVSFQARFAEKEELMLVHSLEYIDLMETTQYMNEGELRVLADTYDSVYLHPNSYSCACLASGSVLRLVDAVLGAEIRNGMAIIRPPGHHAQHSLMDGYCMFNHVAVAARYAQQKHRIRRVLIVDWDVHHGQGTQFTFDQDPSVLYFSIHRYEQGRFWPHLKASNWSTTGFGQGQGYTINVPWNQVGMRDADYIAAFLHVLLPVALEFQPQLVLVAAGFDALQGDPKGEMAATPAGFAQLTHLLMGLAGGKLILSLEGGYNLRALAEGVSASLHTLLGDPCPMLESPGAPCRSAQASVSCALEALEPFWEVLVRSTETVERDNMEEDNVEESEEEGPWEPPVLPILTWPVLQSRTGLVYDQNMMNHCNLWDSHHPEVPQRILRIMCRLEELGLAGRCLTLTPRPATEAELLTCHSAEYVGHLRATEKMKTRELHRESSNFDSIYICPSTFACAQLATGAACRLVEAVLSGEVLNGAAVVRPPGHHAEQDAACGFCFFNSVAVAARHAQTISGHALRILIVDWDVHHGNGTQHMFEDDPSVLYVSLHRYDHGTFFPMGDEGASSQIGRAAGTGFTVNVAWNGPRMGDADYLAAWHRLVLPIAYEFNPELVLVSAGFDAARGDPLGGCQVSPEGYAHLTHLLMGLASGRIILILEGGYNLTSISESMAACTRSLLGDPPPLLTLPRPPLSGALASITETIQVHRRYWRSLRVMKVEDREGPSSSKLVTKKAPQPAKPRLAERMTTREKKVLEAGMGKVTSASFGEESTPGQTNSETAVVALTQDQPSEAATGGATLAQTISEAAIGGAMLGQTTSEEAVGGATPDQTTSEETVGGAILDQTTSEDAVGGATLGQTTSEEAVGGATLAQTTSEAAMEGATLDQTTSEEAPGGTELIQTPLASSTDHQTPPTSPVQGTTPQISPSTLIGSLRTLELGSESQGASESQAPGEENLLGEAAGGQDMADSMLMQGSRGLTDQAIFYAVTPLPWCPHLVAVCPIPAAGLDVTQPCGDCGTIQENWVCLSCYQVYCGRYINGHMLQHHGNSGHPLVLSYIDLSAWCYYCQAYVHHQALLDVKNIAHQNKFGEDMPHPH
HDAC1, sequence (Q13547 whole entry): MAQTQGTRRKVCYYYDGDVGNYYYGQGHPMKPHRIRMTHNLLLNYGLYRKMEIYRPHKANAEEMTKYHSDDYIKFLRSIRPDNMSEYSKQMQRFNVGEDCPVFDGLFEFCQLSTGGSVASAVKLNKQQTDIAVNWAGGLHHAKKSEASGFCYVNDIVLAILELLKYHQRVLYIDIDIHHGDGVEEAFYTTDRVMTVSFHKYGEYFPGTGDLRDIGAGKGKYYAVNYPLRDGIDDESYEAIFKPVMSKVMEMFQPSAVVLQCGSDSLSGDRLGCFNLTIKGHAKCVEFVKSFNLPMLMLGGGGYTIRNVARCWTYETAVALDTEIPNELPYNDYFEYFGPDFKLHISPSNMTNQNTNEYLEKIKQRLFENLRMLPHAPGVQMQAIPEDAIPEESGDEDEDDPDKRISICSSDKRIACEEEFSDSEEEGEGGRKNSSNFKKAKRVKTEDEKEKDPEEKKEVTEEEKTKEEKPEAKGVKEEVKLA

## CN1CCc2c(c3ccccc3n2Cc2ccc(C(=O)NO)cc2)C1 [Tubastatin A]
macrophages; in vitro
  T-cell activation by treated macrophages: better activators of naIve T-cells
macrophages; macrophages
  Expression of co-stimulatory molecules: increased the expression of co-stimulatory molecules
  IL-10 production: inhibits IL-10 production
B16 melanoma
  Tumor growth: delayed tumor growth
B16 melanoma; alone or in combination with anti-CLTA4
  Anti-melanoma effect in vivo: anti-melanoma effect
antigen-specific T-cells
  Antigen-specific T-cell responses to vaccination: enhances antigen-specific T-cell responses
[1]
  JAK2/STAT3 phosphorylation: inhibits JAK2/STAT3 phosphorylation
MCL
  Antitumor effect: strong antitumor effect
[2]
  Expression of MHC I: increase of MHC1
[3]
  Inhibition of proliferation, effective concentration range (in words): low micromolar range
[4]
  Expression of melanoma antigens at the mRNA level: upregulation of melanoma antigens
[5]
  STAT3 phosphorylation: decreased STAT3 phosphorylation
[6]
  acetyl-tubulin and acetylation status of Histone 3: increase acetyl-tubulin without modifying the acetylation status of Histone 3

## O=C(NO)c1ccc(CN(CCc2ccccc2)C(=O)Nc2ccccc2)cc1 [Compound 5h, N-hydroxy-4-((1-phenethyl-3-phenylureido)methyl)benzamide]
[7]
  Growth inhibition of B16 melanoma cells (in words): capable of inhibiting the growth

## CCCCN(Cc1ccc(C(=O)NO)cc1)C(=O)Nc1ccc2cn[nH]c2c1 [JB7-19, 4-((1-butyl-3-(1H-indazol-6-yl)ureido)methyl)-N-hydroxybenzamide]
HDAC6; Table 1B
  Selectivity (HDAC1/−6): 284
HDAC6; [12]
  IC50: 0.00254 µM
[8]
  IL-10 production in antigen presenting cells: inhibit IL-10 production
HDAC1; [13]
  IC50: 0.721 µM
[9]
  Cell proliferation of cancer cells: decrease cell proliferation
[6]
  acetyl-tubulin and acetylation status of Histone 3: increase acetyl-tubulin without modifying the acetylation status of Histone 3

## COc1ccccc1NC(=O)NCc1ccc(C(N)=O)cc1 [Compound 1]
HDAC6; Table 1A, mean of two experiments ± standard deviation, read-out: HDAC6 IC50
  IC50: 0.139 ± 0.027 µM
HDAC1; Table 1A, mean of two experiments ± standard deviation, read-out: HDAC1 IC50
  IC50: 0.265 ± 0.059 µM

## CCCCN(Cc1ccc(C(=O)NO)cc1)C(=O)Nc1ncccn1 [JB6-22, 4-((1-butyl-3-(pyrimidin-2-yl)ureido)methyl)-N-hydroxybenzamide]
HDAC6; Table 1B
  Selectivity (HDAC1/−6): 281
HDAC6; [12]
  IC50: 0.00976 µM
[8]
  IL-10 production in antigen presenting cells: inhibit IL-10 production
HDAC1; [13]
  IC50: 2.74 µM
[9]
  Cell proliferation of cancer cells: decrease cell proliferation
[6]
  acetyl-tubulin and acetylation status of Histone 3: increase acetyl-tubulin without modifying the acetylation status of Histone 3

## CCCCN(Cc1ccc(C(=O)NO)cc1)C(=O)Nc1ccccc1 [Compound 5g, 4-((1-butyl-3-phenylureido)methyl)-N-hydroxybenzamide]
[10]; concentrations of 1 and 10 μM
  histone H3 acetylation: observable increase
[10]; low nanomolar treatment, 24 h
  acetyl α-tubulin levels: dose-dependant increase
  histone H3 acetylation: without a concamanent elevation
B16 melanoma
  Tumor growth: delayed tumor growth
[7]
  Growth inhibition of B16 melanoma cells (in words): capable of inhibiting the growth
[4]
  Expression of melanoma antigens at the mRNA level: upregulation of melanoma antigens
[6]
  acetyl-tubulin and acetylation status of Histone 3: increase acetyl-tubulin without modifying the acetylation status of Histone 3

## CC(C)[C@@H]1C(=O)N(c2ccccc2)C(=O)N1Cc1ccc(C(=O)NO)cc1 [Compound 10b]
HDAC6; Table 2, cyclic urea compounds
  Fold Selective (HDAC1/HDAC6): 531 fold
HDAC6; [14]
  IC50: 0.0222 µM
HDAC1; [15]
  IC50: 11.8 µM

## COc1ccccc1N1C(=O)N(Cc2ccc(C(=O)NO)cc2)C(C)(C)C1=O [Compound 10a]
HDAC6; Table 2, cyclic urea compounds
  Fold Selective (HDAC1/HDAC6): 386 fold
HDAC6; [14]
  IC50: 0.0742 µM
HDAC1; [15]
  IC50: 28.6 µM

## COc1ccccc1NC(=O)N(CCCO)Cc1ccc(C(=O)NO)cc1 [Compound 5b, N-hydroxy-4-((1-(3-hydroxypropyl)-3-(2-methoxyphenyl)ureido)methyl)-benzamide]
[7]
  Growth inhibition of B16 melanoma cells (in words): performed very poorly

## Nexturastat B
B16 WT melanoma
  In vivo growth of B16 WT melanoma compared with control treatment: not significantly different

## Nc1ccccc1NC(=O)c1ccc(CNc2nccc(-c3cccnc3)n2)cc1 [MGCD0103]
[11]
  Cell cycle effects: variable cell cycle effects
[3]
  Inhibition of proliferation, effective concentration range (in words): low micromolar range
[6]; Western blot, FIG. 41
  acetylation of α-tubulin: unchanged

## CCCCN(Cc1ccc(C(=O)NO)cc1)C(=O)Nc1cccc(N(C)C)c1 [JB7-20]
HDAC6; Table 1B
  Selectivity (HDAC1/−6): 99

## O=C(NO)c1ccc(CN2C(=O)N[C@@H](Cc3ccccc3)C2=O)cc1 [Compound 11a]
HDAC6; Table 2, cyclic urea compounds
  Fold Selective (HDAC1/HDAC6): 295 fold
HDAC6; [14]
  IC50: 0.0256 µM
HDAC1; [15]
  IC50: 7.56 µM

## COCCCN(Cc1ccc(C(=O)NO)cc1)C(=O)Nc1ccccc1 [Compound 5e, N-hydroxy-4-((1-(3-methoxypropyl)-3-phenylureido)methyl)benzamide]
HDAC6; Table 1A
  Fold Selective (HDAC1/HDAC6): > 400 fold

Reference: patent publication US9751832B2, “Selective histone deactylase 6 inhibitors” (H. LEE MOFFITT CANCER CENTER AND RESEARCH INSTITUTE, INC., priority 2013, dated 2017)
